Experimental data published in article PMC9603178, “Human Claudin-Derived Peptides Block the Membrane Fusion Process of Zika Virus and Are Broad Flavivirus Inhibitors” (Microbiology Spectrum, 2022).
Where a SMILES comes first, the peptide text is derived from it. Where no end group is shown, it is not given here. [ ]: non-standard residue; d: D form.

Tests used:
ZIKV [1] = assay: ZIKV internalization assay in hCMEC/D3 cells; type: cell-based, Zika virus; settings: 2 h at 37°C
SARS-CoV-2 = type: cell-based; settings: 50 μM, Vero E6 cells, MOI of 1, 72 h, flow cytometry
ZIKV [2] = assay: ZIKV replication and production in TrHBMEC, HUVEC, A549 and HEK 293T cells; type: cell-based, Zika virus; settings: 50 μM peptide, MOI of 1, HUVEC, RT-qPCR and titration
ZIKV [3] = settings: for IC50: read-out: IC50, ZIKV infection in hCMEC/D3, ZIKV MOI of 1, hCMEC/D3, fitted dose-response model, R^2 0.9 (CL1.1) and 0.7 (CL7.1)
ZIKV [4] = assay: Pretreatment of hCMEC/D3 cells with peptide before ZIKV infection; settings: 10 μM for 1 h, cells washed, then ZIKV MOI of 1 for 48 h, hCMEC/D3, RT-qPCR
ZIKV E-mediated fusion = type: cell-based, Zika virus; settings: C6/36 infected with ZIKV MOI of 2 for 48 h, acidification 2 h, fusion index
HCV = tested on: HCV; design: method as in PMID 22378192; settings: Huh7.5.1 cells; cited from earlier work
ZIKV [5] = assay: Treatment of concentrated ZIKV stock followed by 30-fold dilution and infection of hCMEC/D3; settings: ZIKV stock 1.5 × 10^7 PFU/mL treated with 10 μM for 1 h, diluted by a factor of 30, hCMEC/D3, 48 h
Caco-2 epithelial cells = settings: 50 μM, differentiated Caco-2 monolayers on Transwell, over 24 h, n = 3
ZIKV [6] = assay: ZIKV viral production, supernatants of infected hCMEC/D3 cells titrated on Vero E6 cells; type: cell-based, Zika virus; settings: 50 μM peptide, MOI of 1, titrated on Vero E6
[7] = tested on: ZIKV (Brazil/2016/INMI1 strain); assay: Dose-dependent effect on ZIKV infection of Vero E6 cells; type: cell-based, Zika virus; settings: MOI of 1, Brazil/2016/INMI1 strain, fitted dose-response model
Experimental: FIG 4 Amphipathicity was involved in the differences in potency between claudin-derived peptides. […] Three amino acids of interest at positions 11, 15, and 18 are indicated. (B) Sequences of the parental and modified peptides. The swapped amino acids are highlighted. (C) ZIKV (MOI of 1) was treated with 50 μM of the modified peptides described in (B) for 1 h. […] Left or right orientations of the helixes are indicated with an arrow and the hydrophobic faces of each peptide are shown with a black line. […] The dark line represents the fitted dose-response model for each peptide and the light area represents the 95% confidence interval of the model. The calculated IC50 is indicated.
A D-enantiomer of an alpha helix forms a mirrored left-handed helix (Fig. 4D) but retains the same physicochemical properties ([28]).

HIV-1 = settings: 50 μM, human primary CD4+ T cells, 72 h, flow cytometry
ZIKV [8] = assay: ZIKV binding assay on hCMEC/D3 cells; type: cell-based, Zika virus

## O=C(N/N=C/c1ccc(O)c(O)c1)c1cc2ccccc2cc1O [Dynasore, reference compound]
ZIKV [1]; 100 μM, positive control, hCMEC/D3
  reduction of viral internalization: 95%

## MANAGLQLLGFILAFLGW [CL1.1]
SARS-CoV-2
  antiviral activity against SARS-CoV-2 infection: No antiviral activity
YFV; read-out: IC50, YFV, Vero E6, MOI of 1, YFV/17D strain, titration of supernatants
  IC50: 560 ± 50 nM
ZIKV [2]
  ZIKV replication and production: undetectable
ZIKV [3]; 50 μM peptide, hCMEC/D3, MOI of 1, 48 h, RT-qPCR
  intracellular viral RNA levels / impact on ZIKV infection: below the threshold of detection
ZIKV [3]
  IC50: ~870 nM
ZIKV [4]
  cell susceptibility to ZIKV after pretreatment of cells: did not affect cell susceptibility to ZIKV
ZIKV E-mediated fusion; 10 μM
  reduction of syncytium formation: 80%
ZIKV [1]; 10 μM, trypsin removal of surface virus, RT-qPCR
  ZIKV internalization in hCMEC/D3 cells: did not alter
HCV
  antiviral activity against HCV infection: exhibited antiviral activity
ZIKV [5]
  reduction of intracellular viral RNA levels: 80%
Caco-2 epithelial cells
  electric transepithelial resistance: did not alter
ZIKV [6]
  viral production (infectious particles in supernatants): below the detection limit of the assay
[7]
  IC50: 710 ± 50 nM
HIV-1
  antiviral activity against HIV-1 infection: No antiviral activity
ZIKV [8]; 10 μM, inoculum treated 1 h, adsorption 1 h at 4°C, MOI of 10, RT-qPCR
  binding of ZIKV to hCMEC/D3 cells: did not alter

## MANSGLQLLGFSMALLGW [CL7.1]
ZIKV [2]
  ZIKV replication and production: significantly reduced
ZIKV [3]; 50 μM peptide, inoculum treated 1 h, adsorption 2 h, MOI of 1, peptide kept 48 h, hCMEC/D3, RT-qPCR
  reduction of viral RNA levels compared to untreated cells: 2 fold
ZIKV [3]; 50 μM, virus and peptide added simultaneously to the cell culture, hCMEC/D3
  antiviral activity in the absence of pretreatment: also detected
ZIKV [3]
  IC50: 53000 ± 13000 nM
ZIKV E-mediated fusion; 50 μM
  reduction of syncytium formation / fusion: 40%
ZIKV [6]
  viral production (infectious particles in supernatants): significantly reduced

## Heparin [reference compound]
ZIKV [8]; 200 μg/mL, positive control, 1 h at 4°C, MOI of 10, hCMEC/D3
  reduction of viral binding: 80%

## CC[C@@H](C)[C@@H](NC(=O)[C@@H](Cc1ccccc1)NC(=O)CNC(=O)[C@@H](CC(C)C)NC(=O)[C@@H](CC(C)C)NC(=O)[C@@H](CCC(N)=O)NC(=O)[C@@H](CC(C)C)NC(=O)CNC(=O)[C@@H](C)NC(=O)[C@@H](CC(N)=O)NC(=O)[C@@H](C)NC(=O)[C@H](N)CCSC)C(=O)N[C@H](CC(C)C)C(=O)N[C@H](C)C(=O)N[C@H](Cc1ccccc1)C(=O)N[C@H](CC(C)C)C(=O)NCC(=O)N[C@H](Cc1c[nH]c2ccccc12)C(=O)O [D-CL1.1] (H-[dM][dA][dN][dA]G[dL][dQ][dL][dL]G[dF][dI][dL][dA][dF][dL]G[dW]-OH; N-terminus and C-terminus assumed)
JEV
  antiviral properties against JEV compared with CL1.1: comparable to that of CL1.1
YFV; Vero E6, MOI of 1, increasing concentrations (Fig. S6)
  antiviral properties against YFV compared with CL1.1: comparable to that of CL1.1
[7]
  IC50: 670 ± 40 nM
